Reference: paper PMC8402619 (Viruses, 2021)
Like-named read-outs stand apart in the source and are kept apart here.

Legend:
CYP3A4 = CYP3A4 (Homo sapiens, UniProt P08684); assay: Reversible CYP inhibition in pooled human liver microsomes; assay type: in vitro ADME
MDR1 P-gp = MDR1 P-gp (Homo sapiens, UniProt P08183); assay: Uptake in MDR1 P-gp-containing Sf9 membrane vesicles (substrate); assay type: in vitro ADME; parameters: expressed in transfected cells
[1] = Plasma protein binding by equilibrium dialysis, human plasma; assay type: in vitro ADME
OAT3 = molecular target: T1, OAT3 (Homo sapiens, UniProt Q8TCC7); assay: Inhibition of transporter-mediated probe uptake in MDCKII-OAT3 cells; assay type: in vitro ADME
T1 construct: expressed in transfected cells; host or cells: MDCKII
T1 sequence (Q8TCC7 1-542): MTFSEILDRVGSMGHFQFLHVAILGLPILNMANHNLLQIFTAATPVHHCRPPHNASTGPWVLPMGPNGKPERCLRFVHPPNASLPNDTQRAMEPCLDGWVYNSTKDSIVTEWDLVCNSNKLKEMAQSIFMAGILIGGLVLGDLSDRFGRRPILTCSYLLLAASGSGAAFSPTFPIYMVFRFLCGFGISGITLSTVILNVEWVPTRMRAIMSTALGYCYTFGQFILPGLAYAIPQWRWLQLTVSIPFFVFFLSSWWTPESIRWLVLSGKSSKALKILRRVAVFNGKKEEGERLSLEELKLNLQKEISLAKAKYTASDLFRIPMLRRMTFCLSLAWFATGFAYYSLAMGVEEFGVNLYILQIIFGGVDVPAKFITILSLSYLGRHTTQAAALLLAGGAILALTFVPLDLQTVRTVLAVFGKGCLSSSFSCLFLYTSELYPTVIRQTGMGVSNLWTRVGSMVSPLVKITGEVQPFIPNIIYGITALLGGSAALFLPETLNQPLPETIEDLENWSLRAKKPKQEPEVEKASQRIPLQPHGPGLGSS

MRP3 = molecular target: T2, MRP3 (Homo sapiens, UniProt O15438); assay: Inhibition of ATP-dependent probe uptake in Sf9 membrane vesicles; assay type: in vitro ADME; conditions: MRP3-mediated ATP-dependent uptake of E217βG
T2 construct: purchased Thermo Fisher Scientific; host or cells: Sf9

MATE2K = molecular target: T3, MATE2K (Homo sapiens, UniProt Q86VL8); assay: Inhibition of transporter-mediated probe uptake in MDCKII-MATE2K cells; assay type: in vitro ADME
T3 construct: expressed in transfected cells; host or cells: MDCKII

CYP2C19 = CYP2C19 (Homo sapiens, UniProt P33261); assay: Time-dependent CYP inhibition in pooled human liver microsomes; assay type: in vitro ADME
[2] = Plasma protein binding by equilibrium dialysis, monkey plasma; assay type: in vitro ADME; conditions: pH 7.4
[3] = Renal clearance after 1 mg/kg intravenous, rat; assay type: in vivo, male Wistar-Hannover rats; conditions: 1 mg/kg intravenously
CYP2B6 = molecular target: T4, CYP2B6 (Homo sapiens, UniProt P20813); assay: Time-dependent CYP inhibition in pooled human liver microsomes; assay type: in vitro ADME
T4 sequence (P20813 1-491): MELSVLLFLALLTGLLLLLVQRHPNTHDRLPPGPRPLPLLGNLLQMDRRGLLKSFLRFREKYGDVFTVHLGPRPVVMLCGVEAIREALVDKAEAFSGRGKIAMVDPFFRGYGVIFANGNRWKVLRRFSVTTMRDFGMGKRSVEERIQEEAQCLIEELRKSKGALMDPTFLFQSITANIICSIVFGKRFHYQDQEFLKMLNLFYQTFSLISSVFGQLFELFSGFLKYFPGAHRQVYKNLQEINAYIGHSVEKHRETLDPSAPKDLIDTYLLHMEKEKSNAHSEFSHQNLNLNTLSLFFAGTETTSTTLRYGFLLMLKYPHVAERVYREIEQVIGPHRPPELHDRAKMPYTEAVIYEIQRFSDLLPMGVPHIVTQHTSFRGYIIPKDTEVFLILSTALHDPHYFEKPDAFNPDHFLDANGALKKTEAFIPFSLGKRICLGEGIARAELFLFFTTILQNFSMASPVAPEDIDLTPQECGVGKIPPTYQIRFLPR

[4] = Plasma protein binding by equilibrium dialysis, mouse plasma; assay type: in vitro ADME; conditions: pH 7.4
MRP4 = molecular target: T5, MRP4 (Homo sapiens, UniProt O15439); assay: Inhibition of ATP-dependent probe uptake in Sf9 membrane vesicles; assay type: in vitro ADME; conditions: MRP4-mediated ATP-dependent uptake of folic acid
T5 construct: purchased Thermo Fisher Scientific; host or cells: Sf9

[5] = cited from earlier work
[6] = Projected human exposure for a 60 mg oral dose
[7] = Metabolism in human intestinal S9 fraction; assay type: in vitro ADME; conditions: [3H]islatravir 5 µM, M4 the only metabolite detected
CYP2D6 = CYP2D6 (Homo sapiens, UniProt P10635); assay: Reversible CYP inhibition in pooled human liver microsomes; assay type: in vitro ADME
CYP1A2 = assay: CYP induction in cryopreserved human hepatocytes; conditions: for mRNA Mean Fold Change ± SD CYP1A2: 48 h, n = 3 donors, vs DMSO vehicle
[8] = [14C]islatravir 5 µM, presence of ATP, 10 min, mean ± standard deviation

Chain of CYP2C19 (P33261 whole entry): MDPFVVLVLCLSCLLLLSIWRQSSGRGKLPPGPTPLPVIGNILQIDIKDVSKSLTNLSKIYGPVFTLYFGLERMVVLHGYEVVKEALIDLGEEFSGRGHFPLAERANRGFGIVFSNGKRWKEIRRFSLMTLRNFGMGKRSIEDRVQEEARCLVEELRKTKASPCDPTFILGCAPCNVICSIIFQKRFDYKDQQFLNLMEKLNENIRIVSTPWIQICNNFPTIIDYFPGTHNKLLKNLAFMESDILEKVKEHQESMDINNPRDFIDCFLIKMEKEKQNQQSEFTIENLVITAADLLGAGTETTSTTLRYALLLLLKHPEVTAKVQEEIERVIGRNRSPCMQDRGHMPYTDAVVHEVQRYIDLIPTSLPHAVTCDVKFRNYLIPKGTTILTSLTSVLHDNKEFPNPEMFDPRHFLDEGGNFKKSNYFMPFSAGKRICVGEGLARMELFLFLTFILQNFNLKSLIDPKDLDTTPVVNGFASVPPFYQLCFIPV
Chain of CYP3A4 (P08684 whole entry): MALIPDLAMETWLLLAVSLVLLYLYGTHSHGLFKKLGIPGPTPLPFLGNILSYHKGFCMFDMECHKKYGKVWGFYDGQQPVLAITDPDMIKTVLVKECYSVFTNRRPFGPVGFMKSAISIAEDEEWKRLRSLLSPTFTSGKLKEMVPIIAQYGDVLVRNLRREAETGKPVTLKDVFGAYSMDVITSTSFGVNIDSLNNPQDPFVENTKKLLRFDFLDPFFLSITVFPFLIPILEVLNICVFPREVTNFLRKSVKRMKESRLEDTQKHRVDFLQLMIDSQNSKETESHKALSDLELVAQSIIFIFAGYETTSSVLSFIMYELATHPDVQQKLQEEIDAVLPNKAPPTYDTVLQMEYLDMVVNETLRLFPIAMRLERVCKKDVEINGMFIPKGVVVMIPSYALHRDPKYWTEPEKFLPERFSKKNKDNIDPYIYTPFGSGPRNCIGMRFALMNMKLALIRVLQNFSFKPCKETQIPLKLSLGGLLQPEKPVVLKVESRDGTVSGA
Chain of MDR1 P-gp (P08183 whole entry): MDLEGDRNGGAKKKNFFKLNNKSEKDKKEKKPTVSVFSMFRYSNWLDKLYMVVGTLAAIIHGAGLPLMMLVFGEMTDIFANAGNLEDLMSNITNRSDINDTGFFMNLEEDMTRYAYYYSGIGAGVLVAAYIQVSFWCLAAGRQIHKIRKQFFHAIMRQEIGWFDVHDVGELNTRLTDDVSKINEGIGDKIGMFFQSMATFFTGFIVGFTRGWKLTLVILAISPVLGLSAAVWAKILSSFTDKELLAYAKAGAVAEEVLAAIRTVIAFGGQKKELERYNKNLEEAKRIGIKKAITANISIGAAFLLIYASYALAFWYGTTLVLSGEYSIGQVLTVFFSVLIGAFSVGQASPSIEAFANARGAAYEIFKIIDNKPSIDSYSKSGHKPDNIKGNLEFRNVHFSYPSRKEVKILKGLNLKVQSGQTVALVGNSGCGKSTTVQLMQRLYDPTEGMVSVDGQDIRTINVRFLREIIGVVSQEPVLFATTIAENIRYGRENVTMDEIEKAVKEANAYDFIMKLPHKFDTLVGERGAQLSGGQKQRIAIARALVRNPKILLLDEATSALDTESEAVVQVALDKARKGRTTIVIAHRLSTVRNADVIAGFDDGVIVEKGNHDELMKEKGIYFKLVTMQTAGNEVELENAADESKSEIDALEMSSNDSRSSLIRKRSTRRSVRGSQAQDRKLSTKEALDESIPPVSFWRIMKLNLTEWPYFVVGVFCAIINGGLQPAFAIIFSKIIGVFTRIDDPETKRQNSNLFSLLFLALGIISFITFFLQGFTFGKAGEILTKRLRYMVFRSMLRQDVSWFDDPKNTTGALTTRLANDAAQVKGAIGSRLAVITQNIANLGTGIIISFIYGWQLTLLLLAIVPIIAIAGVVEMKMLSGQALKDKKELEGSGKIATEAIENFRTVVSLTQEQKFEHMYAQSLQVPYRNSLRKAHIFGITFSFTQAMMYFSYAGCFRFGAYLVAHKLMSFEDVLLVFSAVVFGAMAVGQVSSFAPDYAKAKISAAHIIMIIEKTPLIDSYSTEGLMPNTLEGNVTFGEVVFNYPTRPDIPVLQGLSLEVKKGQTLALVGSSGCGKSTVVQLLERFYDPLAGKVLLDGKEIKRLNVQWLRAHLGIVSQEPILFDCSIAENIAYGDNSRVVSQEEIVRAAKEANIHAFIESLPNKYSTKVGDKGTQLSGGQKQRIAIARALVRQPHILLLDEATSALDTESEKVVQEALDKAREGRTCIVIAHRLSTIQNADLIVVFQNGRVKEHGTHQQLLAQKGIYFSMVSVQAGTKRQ
Chain of CYP2D6 (P10635 whole entry): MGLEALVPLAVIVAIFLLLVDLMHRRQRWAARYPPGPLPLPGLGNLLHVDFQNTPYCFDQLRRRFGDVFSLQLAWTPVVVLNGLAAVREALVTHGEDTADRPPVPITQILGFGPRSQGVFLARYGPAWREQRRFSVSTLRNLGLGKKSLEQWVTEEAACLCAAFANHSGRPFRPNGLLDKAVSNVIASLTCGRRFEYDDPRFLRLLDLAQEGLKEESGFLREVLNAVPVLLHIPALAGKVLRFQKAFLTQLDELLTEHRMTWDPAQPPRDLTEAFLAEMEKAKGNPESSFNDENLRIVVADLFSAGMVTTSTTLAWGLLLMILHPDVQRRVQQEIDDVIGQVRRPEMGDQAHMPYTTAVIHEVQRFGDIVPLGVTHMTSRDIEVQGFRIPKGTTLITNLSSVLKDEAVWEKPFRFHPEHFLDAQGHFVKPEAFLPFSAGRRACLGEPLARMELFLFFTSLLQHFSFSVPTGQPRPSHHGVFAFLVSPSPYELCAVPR
T3 sequence (Q86VL8 1-566 isoform Q86VL8-3): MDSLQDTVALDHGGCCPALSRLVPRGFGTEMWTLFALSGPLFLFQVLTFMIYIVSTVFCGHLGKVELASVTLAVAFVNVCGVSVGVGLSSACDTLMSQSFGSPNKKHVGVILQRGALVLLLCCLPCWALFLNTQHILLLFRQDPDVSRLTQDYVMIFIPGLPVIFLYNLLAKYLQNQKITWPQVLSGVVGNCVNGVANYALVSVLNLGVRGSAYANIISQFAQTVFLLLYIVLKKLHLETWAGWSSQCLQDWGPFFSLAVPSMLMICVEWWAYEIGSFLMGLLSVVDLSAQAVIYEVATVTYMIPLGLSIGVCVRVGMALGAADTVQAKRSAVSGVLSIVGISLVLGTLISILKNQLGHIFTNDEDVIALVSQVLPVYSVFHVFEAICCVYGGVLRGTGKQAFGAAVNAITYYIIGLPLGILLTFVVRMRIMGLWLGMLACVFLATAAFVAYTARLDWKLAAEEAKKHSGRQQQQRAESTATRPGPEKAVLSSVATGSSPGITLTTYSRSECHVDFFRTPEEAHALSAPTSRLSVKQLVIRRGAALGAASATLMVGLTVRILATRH
T2 sequence (O15438 whole entry): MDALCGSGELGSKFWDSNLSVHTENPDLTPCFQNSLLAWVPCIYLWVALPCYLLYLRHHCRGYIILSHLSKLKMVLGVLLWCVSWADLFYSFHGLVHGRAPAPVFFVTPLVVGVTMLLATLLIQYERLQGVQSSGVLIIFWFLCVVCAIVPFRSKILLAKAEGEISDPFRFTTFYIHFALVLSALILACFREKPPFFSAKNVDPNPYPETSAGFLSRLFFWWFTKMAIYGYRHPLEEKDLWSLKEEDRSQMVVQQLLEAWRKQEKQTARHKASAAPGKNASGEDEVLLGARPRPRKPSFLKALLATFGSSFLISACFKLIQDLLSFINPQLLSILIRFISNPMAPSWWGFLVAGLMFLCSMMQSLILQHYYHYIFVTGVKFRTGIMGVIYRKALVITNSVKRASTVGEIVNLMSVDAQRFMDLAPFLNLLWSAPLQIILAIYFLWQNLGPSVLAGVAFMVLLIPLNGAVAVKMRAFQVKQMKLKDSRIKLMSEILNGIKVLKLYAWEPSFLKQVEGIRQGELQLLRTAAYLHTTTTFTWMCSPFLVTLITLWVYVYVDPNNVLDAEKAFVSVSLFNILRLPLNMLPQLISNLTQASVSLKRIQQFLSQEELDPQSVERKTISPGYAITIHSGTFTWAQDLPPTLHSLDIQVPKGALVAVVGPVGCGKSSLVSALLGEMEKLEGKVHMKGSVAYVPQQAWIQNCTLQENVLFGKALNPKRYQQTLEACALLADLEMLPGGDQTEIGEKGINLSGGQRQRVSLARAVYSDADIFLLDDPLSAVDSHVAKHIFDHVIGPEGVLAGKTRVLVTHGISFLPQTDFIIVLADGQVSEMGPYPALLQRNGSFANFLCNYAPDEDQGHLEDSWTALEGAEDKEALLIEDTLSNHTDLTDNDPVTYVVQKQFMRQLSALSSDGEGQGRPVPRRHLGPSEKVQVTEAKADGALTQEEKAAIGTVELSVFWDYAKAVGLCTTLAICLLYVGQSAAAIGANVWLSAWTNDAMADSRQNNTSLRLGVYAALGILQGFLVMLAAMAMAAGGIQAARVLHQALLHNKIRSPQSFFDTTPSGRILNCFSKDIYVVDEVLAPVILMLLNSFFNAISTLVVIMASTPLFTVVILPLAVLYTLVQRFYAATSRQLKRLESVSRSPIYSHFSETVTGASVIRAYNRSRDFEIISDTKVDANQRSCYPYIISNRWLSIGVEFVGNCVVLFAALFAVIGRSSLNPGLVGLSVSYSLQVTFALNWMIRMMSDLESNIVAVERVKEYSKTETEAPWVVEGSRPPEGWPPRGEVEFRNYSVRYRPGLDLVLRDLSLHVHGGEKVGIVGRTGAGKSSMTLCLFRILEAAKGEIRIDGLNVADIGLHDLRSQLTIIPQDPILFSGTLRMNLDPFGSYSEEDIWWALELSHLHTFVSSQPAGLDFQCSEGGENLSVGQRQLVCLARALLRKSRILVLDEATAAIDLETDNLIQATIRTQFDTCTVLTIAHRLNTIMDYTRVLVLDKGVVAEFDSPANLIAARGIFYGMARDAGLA

For `C#C[C@]1(CO)O[C@@H](n2cnc3c(N)nc(F)nc32)C[C@@H]1O` [Islatravir, 4′-Ethynyl-2-fluoro-2′-deoxyadenosine], the “DDI Potential” value (CYP3A4; CYP3A4 reversible inhibition, FDA, EMA, PMDA guidance) was “Low risk”, the “Maximum Unbound Plasma Concentration (Imax,u) to Ki,u Ratio” value (CYP3A4; CYP3A4 reversible, 60 mg, Cmax 1.01 µM, fu,p 0.96, Ki,u = IC50/2) was <0.010 µM and the “Intestinal Concentration (Igut) to Ki,u Ratio” value (CYP3A4; CYP3A4 reversible, Igut = 60 mg/250 mL = 818 µM) was <8.2 µM. For the same molecule, the “uptake into control vesicles” value (MDR1 P-gp; [8]) was 5.7 ± 2.1 pmole/mg protein, the “uptake into membrane vesicles containing MDR1 P-gp” value (MDR1 P-gp; [8]) was 3.7 ± 1.3 pmole/mg protein and the “MDR1 P-gp substrate assessment” value (MDR1 P-gp; uptake not ATP-dependent) was “not a substrate of MDR1 P-gp”. The “concentration dependence of binding to plasma proteins” value ([1]; 0.1 to 10 µM, all species tested) was “did not exhibit concentration dependence”, the fraction unbound at 24 h, 0.1 µM ([1]; pH 7.4, human plasma, 0.1 µM islatravir, ± standard deviation) was 0.96 ± 0.04 and the inhibition at 100 µM (OAT3; MDCKII-OAT3 cells, probe estrone sulfate, 100 µM islatravir) was 31%. The IC50 (OAT3; OAT3-mediated estrone sulfate uptake, read-out: Islatravir IC50) was > 100 µM, the “Maximum Unbound Plasma Concentration (Imax,u) to IC50 Ratio” value (OAT3; OAT3, 60 mg, Cmax 1.01 µM, fu,p 0.96) was <0.010 µM and the “DDI Potential” value (OAT3; OAT3 inhibition, FDA, EMA, PMDA guidance) was “Low risk”. The IC50 (MRP3) was > 100 µM, the “DDI Potential” value (MATE2K; MATE2K inhibition, FDA, EMA, PMDA guidance) was “Low risk” and the IC50 (MATE2K; MATE2K, metformin uptake, read-out: Islatravir IC50) was > 75 µM. The “Maximum Unbound Plasma Concentration (Imax,u) to IC50 Ratio” value (MATE2K; MATE2K, 60 mg, Cmax 1.01 µM, fu,p 0.96) was <0.013 µM, the time-dependent inhibition (CYP2C19; CYP2C19, pre-incubation of 10 and 50 µM for up to 30 min) was “no time-dependent inhibition” and the “DDI Potential” value (CYP2C19; CYP2C19 time dependent inhibition) was “Low risk ^h”. The IC50 (CYP2C19; time dependent, CYP2C19, read-out: Islatravir IC50) was > 50 µM, the fraction unbound at 24 h, 0.1 µM [2] was > 0.84 and the “Renal Excretion (% Total Plasma Clearance)” value [3] was 17%. The CL renal ([3]; male, Wistar-Hannover, plasma and urine, iv, urine 0-24 h) was 11.5 mL/min/kg, the time-dependent inhibition (CYP2B6; CYP2B6, pre-incubation of 10 and 50 µM for up to 30 min) was “no time-dependent inhibition” and the “DDI Potential” value (CYP2B6; CYP2B6 time dependent inhibition) was “Low risk ^h”. For the same molecule, the IC50 (CYP2B6; time dependent, CYP2B6, read-out: Islatravir IC50) was > 50 µM, the fraction unbound at 24 h, 0.1 µM [4] was > 0.84 and the IC50 (MRP4) was > 100 µM. For the same molecule, the “drug-drug interaction, PK” value ([5]; co-administered with doravirine) was “no clinically meaningful effects on the PK of either drug”, the drug-drug interaction ([5]; co-administration with levonorgestrel/ethinyl estradiol) was “No significant drug–drug interactions” and the “drug-drug interaction, PK” value ([5]; with tenofovir disoproxil fumarate and dolutegravir) was “no meaningful drug–drug interactions”. The “projected maximum free concentration at the liver inlet” value [6] was “approximately 10 µM”, the turnover [7] was “low turnover” and the “DDI Potential” value (CYP2D6; CYP2D6 reversible inhibition, FDA, EMA, PMDA guidance) was “Low risk”. The “Maximum Unbound Plasma Concentration (Imax,u) to Ki,u Ratio” value (CYP2D6; CYP2D6 reversible, 60 mg, Cmax 1.01 µM, fu,p 0.96, Ki,u = IC50/2) was <0.019 µM, the IC50 (CYP2D6; reversible, CYP2D6 dextromethorphan O-demethylation, read-out: Islatravir IC50) was > 100 µM and the “mRNA Mean Fold Change ± SD CYP1A2” value (CYP1A2; 0.1 µM) was 0.4 ± 0.2. The “mRNA Mean Fold Change ± SD CYP1A2” value (CYP1A2; 0.5 µM) was 0.4 ± 0.2, the “mRNA Mean Fold Change ± SD CYP1A2” value (CYP1A2; 1 µM) was 0.5 ± 0.3 and the “mRNA Mean Fold Change ± SD CYP1A2” value (CYP1A2; 5 µM) was 0.4 ± 0.3. The “mRNA Mean Fold Change ± SD CYP1A2” value (CYP1A2; 10 µM) was 0.5 ± 0.4, the “mRNA Mean Fold Change ± SD CYP1A2” value (CYP1A2; 20 µM) was 0.2 ± 0.2 and the “mRNA response relative to positive control” value (CYP1A2; CYP1A2, each tested concentration 0.1-20 µM) was “less than 20%”. The “enzyme activity, fold of solvent control” value (CYP1A2; CYP1A2 phenacetin O-deethylation, all islatravir concentrations) was ≤ 1.1 fold.
